Reference: patent publication EP0083750A1, “Antimycotic azolyl butanols” (BAYER AG, priority 1981, dated 1983)
≈ marks a conversion by molar mass, not a printed value. Where a name gives a salt, the structure may show the parent alone.

Key:
Type in all cases: cell-based
Aspergillus fumig. = assay: Antimycotic in-vitro activity, serial dilution test (MIC); settings: 96 h, Reihenverdünnungstest, 5 x 10^4 Keimen/ml Substrat, Sabourand's milieu d'epreuve, 20°C, 96 Stunden, read-out: MHK-Werte in γ/ml Nährmedium, Aspergillus fumig.
Procedure: (§1) Versuchsbeschreibung: • Die in-vitro-Prüfungen wurden im Reihenverdünnungstest mit Keiminokula von durchschnittlich 5 x 10^4 Keimen/ml Substrat durchgeführt. Als Nährmedium dienten • a) für Dermatophyten und Schimmelpilze: Sabourand's milieu d'epreuve • b) für Hefen: • Fleischextrakt-Traubenzucker-Bouillon.
(§2) Die Bebrütungstemperatur betrug 20°C, die Bebrütungsdauer lag bei 24 bis 96 Stunden bei Hefen und 96 Stunden bei Dermatophyten und Schimmelpilzen.

Candida albicans = assay: as above; settings: Reihenverdünnungstest, 5 x 10^4 Keimen/ml Substrat, Fleischextrakt-Traubenzucker-Bouillon, 20°C, 24 bis 96 Stunden, read-out: MHK-Werte in γ/ml Nährmedium, Candida albicans
Procedure: as §1, §2

Microsporum canis = assay: as above; settings: 96 h, Reihenverdünnungstest, 5 x 10^4 Keimen/ml Substrat, Sabourand's milieu d'epreuve, 20°C, 96 Stunden, read-out: MHK-Werte in γ/ml Nährmedium, Microsporum canis
Procedure: as §1, §2

Torulopsis glabrata = assay: as above; settings: Nakaseomyces glabratus; Reihenverdünnungstest, 5 x 10^4 Keimen/ml Substrat, Fleischextrakt-Traubenzucker-Bouillon, 20°C, 24 bis 96 Stunden; read-out: MHK-Werte in γ/ml Nährmedium, Torulopsis glabrata
Procedure: as §1, §2

Trichophyton mentagr. = assay: as above; settings: 96 h, Reihenverdünnungstest, 5 x 10^4 Keimen/ml Substrat, Sabourand's milieu d'epreuve, 20°C, 96 Stunden, read-out: MHK-Werte in γ/ml Nährmedium, Trichophyton mentagr.
Procedure: as §1, §2

[1] = system: Dermatophyten, Schimmelpilze, Hefen; assay: Antimycotic in-vitro activity, serial dilution test, overall comparison with prior art; settings: in-vitro Reihenverdünnungstest
Procedure: as §1, §2

| Compound | MIC (Aspergillus fumig.) | MIC (Candida albicans) | MIC (Microsporum canis) | MIC (Torulopsis glabrata) | MIC (Trichophyton mentagr.) | antimykotische Wirkung im Vergleich zu den bekannten Verbindungen (A) und (B) [1] |
| --- | --- | --- | --- | --- | --- | --- |
| CC(C)(CSc1ccc(Cl)cc1)C(O)C(Cc1ccc(F)cc1)n1cncn1 (centres unmarked) [Beispiel 40] | < 1 mg/L | < 1 mg/L | < 1 mg/L | 4 mg/L (≈ 9.52 µM) | < 1 mg/L | – |
| C=CCC(C(O)C(C)(C)Oc1ccc(Cl)cc1Cl)n1cncn1 (centres unmarked) [Beispiel 53] | 8 mg/L (≈ 22.5 µM) | 4 mg/L (≈ 11.2 µM) | 2 mg/L (≈ 5.61 µM) | 32 mg/L (≈ 89.8 µM) | 2 mg/L (≈ 5.61 µM) | bessere antimykotische Wirkung |
| CCCCC(C(O)C(C)(C)CSc1ccc(Cl)cc1)n1cncn1 (centres unmarked) [Beispiel 41] | > 64 mg/L | < 1 mg/L | < 1 mg/L | 2 mg/L (≈ 5.44 µM) | < 1 mg/L | bessere antimykotische Wirkung |
| CC(C)(CSc1ccc(Cl)cc1)C(O)C(Cc1ccc(Cl)cc1Cl)n1cncn1 (centres unmarked) [Beispiel 39] | 64 mg/L (≈ 136 µM) | < 1 mg/L | 16 mg/L (≈ 34 µM) | < 1 mg/L | < 1 mg/L | bessere antimykotische Wirkung |
| CC(C)(Cc1ccccc1)C(O)C(Cc1ccc(Cl)cc1Cl)n1cncn1 (centres unmarked) [Beispiel 83] | 32 mg/L (≈ 79.1 µM) | < 1 mg/L | 8 mg/L (≈ 19.8 µM) | 4 mg/L (≈ 9.89 µM) | < 1 mg/L | bessere antimykotische Wirkung |
| CC(C)(COc1ccc(Br)cc1)C(O)C(CCOc1ccc(Cl)cc1Cl)n1cncn1 (centres unmarked) [Beispiel 45] | 32 mg/L (≈ 60.5 µM) | < 1 mg/L | 8 mg/L (≈ 15.1 µM) | 4 mg/L (≈ 7.56 µM) | < 1 mg/L | bessere antimykotische Wirkung |
| CCCCC(C(O)C(C)(C)Oc1ccc(C(=O)OCC)cc1)n1cncn1 (centres unmarked) [Beispiel 62] | 8 mg/L (≈ 21.3 µM) | 8 mg/L (≈ 21.3 µM) | 8 mg/L (≈ 21.3 µM) | 32 mg/L (≈ 85.2 µM) | 2 mg/L (≈ 5.33 µM) | bessere antimykotische Wirkung |
| CC(C)(COc1ccc(Br)cc1)C(O)C(CC1CCCCC1)n1cncn1 (centres unmarked) [Beispiel 35] | < 1 mg/L | 32 mg/L (≈ 73.3 µM) | 8 mg/L (≈ 18.3 µM) | < 1 mg/L | < 1 mg/L | bessere antimykotische Wirkung |
| CCOCC(C)(C)C(O)C(Cc1ccc(Cl)cc1Cl)n1cncn1 (centres unmarked) [Beispiel 85] | 16 mg/L (≈ 43 µM) | < 1 mg/L | 8 mg/L (≈ 21.5 µM) | 4 mg/L (≈ 10.7 µM) | 4 mg/L (≈ 10.7 µM) | bessere antimykotische Wirkung |
| CC(C)(Oc1ccc(Cl)cc1Cl)C(O)C(Cc1ccccc1)n1cncn1 (centres unmarked) [Beispiel 28] | 16 mg/L (≈ 39.4 µM) | 16 mg/L (≈ 39.4 µM) | 4 mg/L (≈ 9.84 µM) | 64 mg/L (≈ 158 µM) | 2 mg/L (≈ 4.92 µM) | bessere antimykotische Wirkung |
| CCOCC(C)(C)C(O)C(Cc1ccc(Cl)c(Cl)c1)n1cncn1 (centres unmarked) [Beispiel 86] | 8 mg/L (≈ 21.5 µM) | 16 mg/L (≈ 43 µM) | 4 mg/L (≈ 10.7 µM) | 32 mg/L (≈ 86 µM) | 2 mg/L (≈ 5.37 µM) | bessere antimykotische Wirkung |
| CC(C)(CSc1ccc(Cl)cc1)C(O)C(Cc1ccc(Cl)cc1)n1cncn1 (centres unmarked) [Beispiel 38] | 64 mg/L (≈ 147 µM) | < 1 mg/L | < 1 mg/L | < 1 mg/L | < 1 mg/L | bessere antimykotische Wirkung |
| CCOCC(C)(C)C(O)C(Cc1ccc(Cl)cc1)n1cncn1 (centres unmarked) [Beispiel 42] | 8 mg/L (≈ 23.7 µM) | 2 mg/L (≈ 5.92 µM) | 8 mg/L (≈ 23.7 µM) | 16 mg/L (≈ 47.4 µM) | < 1 mg/L | bessere antimykotische Wirkung |
| CCCCC(C(O)C(C)(C)Oc1ccc(Cl)cc1)n1cncn1 (centres unmarked) [Beispiel 52] | 16 mg/L (≈ 47.4 µM) | < 1 mg/L | 2 mg/L (≈ 5.92 µM) | 4 mg/L (≈ 11.8 µM) | 2 mg/L (≈ 5.92 µM) | bessere antimykotische Wirkung |
| CC(C)(COc1ccc(Cl)cc1)C(O)Cn1cncn1 (centres unmarked) [Beispiel 4] | 16 mg/L (≈ 54.1 µM) | 32 mg/L (≈ 108 µM) | 8 mg/L (≈ 27 µM) | > 64 mg/L | 16 mg/L (≈ 54.1 µM) | bessere antimykotische Wirkung |
| CC(C)(Oc1ccc(Cl)cc1)C(O)C(Cc1c(Cl)cccc1Cl)n1cncn1 (centres unmarked) [Beispiel 29] | > 64 mg/L | < 1 mg/L | 4 mg/L (≈ 9.08 µM) | 4 mg/L (≈ 9.08 µM) | < 1 mg/L | bessere antimykotische Wirkung |
| CC(C)(Oc1ccc(Cl)cc1Cl)C(O)C(Cc1ccc(Cl)cc1)n1cncn1 (centres unmarked) [Beispiel 1, 5-(4-Chlorphenyl)-2-(2,4-dichlorphen-oxy)-2-methyl-4-(1,2,4-triazol-1-yl)-pentan-3-ol-hydrochlorid] | 64 mg/L | 16 mg/L | 64 mg/L | 64 mg/L | 2 mg/L | bessere antimykotische Wirkung |
| CCC(C(O)C(C)(C)Oc1ccc(Cl)cc1)n1cncn1 (centres unmarked) [Beispiel 57] | 32 mg/L (≈ 103 µM) | 8 mg/L (≈ 25.8 µM) | 8 mg/L (≈ 25.8 µM) | 32 mg/L (≈ 103 µM) | 8 mg/L (≈ 25.8 µM) | bessere antimykotische Wirkung |
| COCC(C)(C)C(O)C(Cc1ccc(Cl)cc1)n1cncn1 (centres unmarked) [Beispiel 9] | 16 mg/L (≈ 49.4 µM) | 8 mg/L (≈ 24.7 µM) | 4 mg/L (≈ 12.4 µM) | 32 mg/L (≈ 98.8 µM) | 4 mg/L (≈ 12.4 µM) | bessere antimykotische Wirkung |
| CCCCC(C(O)C(C)(C)Cc1ccc(Cl)cc1Cl)n1cncn1 (centres unmarked) [Beispiel 81] | < 1 mg/L | 2 mg/L (≈ 5.4 µM) | 2 mg/L (≈ 5.4 µM) | 8 mg/L (≈ 21.6 µM) | < 1 mg/L | bessere antimykotische Wirkung |
| C=CCC(C(O)C(C)(C)Oc1ccc(Cl)cc1Cl)n1ccnc1 (centres unmarked) [Beispiel 66] | 16 mg/L (≈ 45 µM) | < 1 mg/L | 8 mg/L (≈ 22.5 µM) | 4 mg/L (≈ 11.3 µM) | 4 mg/L (≈ 11.3 µM) | bessere antimykotische Wirkung |
| CC(C)(Oc1ccc(Cl)cc1)C(O)C(Cc1ccc(Cl)cc1Cl)n1cncn1 (centres unmarked) [Beispiel 27] | > 64 mg/L | < 1 mg/L | 4 mg/L (≈ 9.08 µM) | < 1 mg/L | < 1 mg/L | bessere antimykotische Wirkung |
| CC(C)(Oc1ccc(Cl)cc1)C(O)C(CC1CCCCC1)n1cncn1 (centres unmarked) [Beispiel 31] | 8 mg/L (≈ 21.2 µM) | < 1 mg/L | 32 mg/L (≈ 84.7 µM) | 4 mg/L (≈ 10.6 µM) | 2 mg/L (≈ 5.29 µM) | bessere antimykotische Wirkung |
| CCCCC(C(O)C(C)(C)Oc1ccc(Cl)cc1Cl)n1cncn1 (centres unmarked) [Beispiel 51] | 8 mg/L (≈ 21.5 µM) | 2 mg/L (≈ 5.37 µM) | 2 mg/L (≈ 5.37 µM) | 8 mg/L (≈ 21.5 µM) | < 1 mg/L | bessere antimykotische Wirkung |
